Patent US20100151452A1, “Methods and Systems for Searching for Regulators of the Fer Protein and for Monitoring the Effects of the Fer Protein” (priority 2006, published 2010)

System: CDK2
Test: Western blot of CDK2 level
Assay type: cell-based, human
Conditions: PC3 cells, simultaneous exposure to fer-siRNA and cycloheximide 10 μg/ml 4 h
Experimental: For treatment with cycloheximide, PC3 cells transfected with siRNA for 72 h, were subjected to 10 μg/ml cycloheximide for additional 4 h, at the end of the transfection process.
Whole cell lysates (WCL) were prepared as described before (Salem et al., 2005). For Western blot analysis, 20-30 μg proteins from each sample were resolved in 7-12% SDS-PAGE. Electroblotted proteins were detected using specific anti-Fer antibodies (Priel-Halachmi et al., 2000), anti-CDK2 (sc-6248, Santa Cruz), anti-CDK1 (sc-54, Santa Cruz), anti-CDK4 (610148, BD Biosciences), anti-CDK6 (554086, BD Biosciences), anti-CDK7 (sc-856, Santa Cruz), anti-cyclin A (sc-751, Santa Cruz), anti-cyclin D1 (sc-6281, Santa Cruz), anti-cyclin E (sc-247, Santa Cruz), anti-cyclin H (sc-1662, Santa Cruz), anti-pRB (sc-102, Santa Cruz), anti-phosphosthreonine^821-pRB (pThr821) (44-582, Biosource), anti-phosphoserine^795-pRB (pSer795) (sc-7986-R, Santa Cruz), anti-phosphoserine^780-pRB (pSer780) (9307, Cell Signaling), anti-phosphoserine^807/811-pRB (pSer807/811) (9308, Cell Signaling), anti-PP1α (2582, Cell Signaling), anti-PP1 (sc-443, Santa Cruz), anti-phosphothreonine^320-PP1α (pThr320) (2581, Cell Signaling), anti-p21Cip1 (sc-6246, Santa Cruz), anti-p27Kip1 (sc-528, Santa Cruz), anti-HA (NMS-101R, Covance), anti-Myc (13-2500, Zymed), and anti-Actin antibody (A 4700, Sigma). […]

Compound: C[C@@H]1C[C@@H]([C@H](O)CC2CC(=O)NC(=O)C2)C(=O)[C@@H](C)C1 [cycloheximide]
- effect on the fer-siRNA induced decrease of the level of CDK2: alleviated this effect
